Measured values from patent US12421243B2, “Pharmaceutically effective compounds inhibiting selectively the myosin 2 isoforms” (PRINTNET KERESKEDELMI ÉS SZOLGÁLTATÓ KFT., priority 2018, dated 2025).

Tests used:
[1] = molecular target: isolated smooth muscle myosin (UniProt P10587); format: biochemical, chamois; conditions: for % inhibition at 5 μM (or 10 μM if racemate) Smooth: 5 μM (10 μM if racemate); for % inhibition at 5 μM (or 10 μM if racemate) Smooth / % inhibition at 50 μM (or 100 μM if racemate) Smooth: ATPase activity; for % inhibition at 50 μM (or 100 μM if racemate) Smooth: 50 μM (100 μM if racemate); for Inhibition (%) smooth: maximum inhibition, compounds in IC50 range 1-5 μM; for % inhibition. complete Smooth: maximum value of inhibition of ATPase activity
[2] = test system: isolated rabbit skeletal muscle myosin (skeletal); experiment: actomyosin steady state ATPase measurement, skeletal muscle myosin; format: biochemical; conditions: for % inhibition at 5 μM (or 10 μM if racemate) Skeletal: 5 μM (10 μM if racemate); for % inhibition at 5 μM (or 10 μM if racemate) Skeletal / % inhibition at 50 μM (or 100 μM if racemate) Skeletal: ATPase activity; for % inhibition at 50 μM (or 100 μM if racemate) Skeletal: 50 μM (100 μM if racemate); for IC50: concentration required for semi-maximal inhibition of ATPase; for % inhibition. complete Skeletal: maximum value of inhibition of ATPase activity; for Inhibition (%) skeletal: maximum inhibition, compounds in IC50 range 1-2 μM
Excerpt: (§1) […]; (ii) the concentration required for semi-maximal inhibition.

[3] = molecular target: T1, isolated porcine cardiac ventricular myocardium (cardiac) (Sus scrofa, UniProt P79293); experiment: actomyosin steady state ATPase measurement, cardiac myosin; format: biochemical; conditions: for IC50: concentration required for semi-maximal inhibition of ATPase; for % inhibition. complete cardiac: maximum value of inhibition of ATPase activity; for inhibition at 5 µM: read-out: % inhibition at 5 μM (or 10 μM if racemate) cardiac, 5 μM (10 μM if racemate); for inhibition at 5 µM / inhibition at 50 µM: ATPase activity; for inhibition at 50 µM: read-out: % inhibition at 50 μM (or 100 μM if racemate) cardiac, 50 μM (100 μM if racemate)
T1 construct: isolated porcine cardiac ventricular myocardium (cardiac); from tissue; host or cells: porcine cardiac ventricle
Excerpt: as §1

[4] = molecular target: recombinant Dictyostelium miozin (Dictyostelium) (Dictyostelium discoideum, UniProt P08799); experiment: actomyosin steady state ATPase measurement, Dictyostelium myosin; format: biochemical; conditions: for IC50: concentration required for semi-maximal inhibition of ATPase, read-out: IC50 (μM) Dicty; for inhibition at 5 µM: read-out: % inhibition at 5 μM (or 10 μM if racemate) Dicty; for inhibition at 50 µM: read-out: % inhibition at 50 μM (or 100 μM if racemate) Dicty; for % inhibition. complete Dicty: maximum value of inhibition of ATPase activity
Excerpt: as §1

[5] = molecular target: isolated smooth muscle myosin (UniProt P10587); format: biochemical, chamois; conditions: concentration required for semi-maximal inhibition of ATPase
Excerpt: (ii) the concentration required for semi-maximal inhibition.

[6] = molecular target: recombinant human non-muscle myosin 2 NM2C (Homo sapiens, UniProt Q7Z406); experiment: actomyosin steady state ATPase measurement, NM2C; format: biochemical
Excerpt: as §1

Chain of recombinant human non-muscle myosin 2 NM2C (Q7Z406 whole entry): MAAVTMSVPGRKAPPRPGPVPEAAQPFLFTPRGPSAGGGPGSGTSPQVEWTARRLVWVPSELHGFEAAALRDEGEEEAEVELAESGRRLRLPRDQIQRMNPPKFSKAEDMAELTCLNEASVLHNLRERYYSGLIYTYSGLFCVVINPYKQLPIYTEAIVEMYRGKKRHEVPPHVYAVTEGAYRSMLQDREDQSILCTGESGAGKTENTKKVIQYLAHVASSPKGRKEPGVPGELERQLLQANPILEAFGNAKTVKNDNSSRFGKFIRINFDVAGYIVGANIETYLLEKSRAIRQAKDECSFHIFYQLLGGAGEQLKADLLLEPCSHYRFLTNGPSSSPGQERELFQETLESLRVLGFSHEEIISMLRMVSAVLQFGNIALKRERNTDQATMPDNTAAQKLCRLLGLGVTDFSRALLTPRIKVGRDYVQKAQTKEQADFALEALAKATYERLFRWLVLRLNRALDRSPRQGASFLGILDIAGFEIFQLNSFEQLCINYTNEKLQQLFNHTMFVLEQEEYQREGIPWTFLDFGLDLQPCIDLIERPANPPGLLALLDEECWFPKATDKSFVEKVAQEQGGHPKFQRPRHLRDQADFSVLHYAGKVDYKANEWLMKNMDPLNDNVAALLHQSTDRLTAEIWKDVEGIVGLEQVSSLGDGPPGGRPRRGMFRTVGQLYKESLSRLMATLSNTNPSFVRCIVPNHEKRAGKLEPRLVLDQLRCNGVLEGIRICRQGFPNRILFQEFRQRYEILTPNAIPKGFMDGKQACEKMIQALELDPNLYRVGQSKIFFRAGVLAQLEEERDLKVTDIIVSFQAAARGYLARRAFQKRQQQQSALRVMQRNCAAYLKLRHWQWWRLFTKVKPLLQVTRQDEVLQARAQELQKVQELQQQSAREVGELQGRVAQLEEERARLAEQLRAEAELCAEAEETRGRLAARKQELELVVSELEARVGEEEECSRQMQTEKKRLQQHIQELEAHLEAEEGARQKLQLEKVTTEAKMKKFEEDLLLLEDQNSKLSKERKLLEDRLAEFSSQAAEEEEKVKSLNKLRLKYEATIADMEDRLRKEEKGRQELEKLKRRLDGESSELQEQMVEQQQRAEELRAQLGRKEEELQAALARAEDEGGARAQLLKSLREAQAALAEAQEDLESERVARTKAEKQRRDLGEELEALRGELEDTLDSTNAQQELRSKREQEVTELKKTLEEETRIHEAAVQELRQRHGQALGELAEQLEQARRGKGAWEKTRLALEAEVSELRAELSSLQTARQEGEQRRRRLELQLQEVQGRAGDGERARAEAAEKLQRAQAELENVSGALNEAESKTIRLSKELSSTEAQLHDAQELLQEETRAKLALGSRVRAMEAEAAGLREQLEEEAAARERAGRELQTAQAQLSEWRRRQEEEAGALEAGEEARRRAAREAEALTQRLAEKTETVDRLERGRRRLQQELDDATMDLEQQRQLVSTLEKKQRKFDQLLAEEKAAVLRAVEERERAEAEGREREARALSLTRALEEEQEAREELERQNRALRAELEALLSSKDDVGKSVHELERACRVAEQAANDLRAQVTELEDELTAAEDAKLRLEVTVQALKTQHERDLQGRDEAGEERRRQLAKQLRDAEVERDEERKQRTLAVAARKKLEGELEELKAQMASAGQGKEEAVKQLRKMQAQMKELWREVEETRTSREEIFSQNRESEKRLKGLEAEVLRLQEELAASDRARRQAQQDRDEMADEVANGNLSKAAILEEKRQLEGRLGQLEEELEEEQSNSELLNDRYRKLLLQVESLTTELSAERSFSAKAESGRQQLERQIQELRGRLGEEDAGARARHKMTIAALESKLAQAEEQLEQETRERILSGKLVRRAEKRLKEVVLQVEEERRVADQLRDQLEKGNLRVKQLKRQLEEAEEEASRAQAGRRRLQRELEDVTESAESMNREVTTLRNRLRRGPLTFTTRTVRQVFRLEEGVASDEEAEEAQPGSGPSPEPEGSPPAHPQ
Chain of isolated smooth muscle myosin (P10587 whole entry): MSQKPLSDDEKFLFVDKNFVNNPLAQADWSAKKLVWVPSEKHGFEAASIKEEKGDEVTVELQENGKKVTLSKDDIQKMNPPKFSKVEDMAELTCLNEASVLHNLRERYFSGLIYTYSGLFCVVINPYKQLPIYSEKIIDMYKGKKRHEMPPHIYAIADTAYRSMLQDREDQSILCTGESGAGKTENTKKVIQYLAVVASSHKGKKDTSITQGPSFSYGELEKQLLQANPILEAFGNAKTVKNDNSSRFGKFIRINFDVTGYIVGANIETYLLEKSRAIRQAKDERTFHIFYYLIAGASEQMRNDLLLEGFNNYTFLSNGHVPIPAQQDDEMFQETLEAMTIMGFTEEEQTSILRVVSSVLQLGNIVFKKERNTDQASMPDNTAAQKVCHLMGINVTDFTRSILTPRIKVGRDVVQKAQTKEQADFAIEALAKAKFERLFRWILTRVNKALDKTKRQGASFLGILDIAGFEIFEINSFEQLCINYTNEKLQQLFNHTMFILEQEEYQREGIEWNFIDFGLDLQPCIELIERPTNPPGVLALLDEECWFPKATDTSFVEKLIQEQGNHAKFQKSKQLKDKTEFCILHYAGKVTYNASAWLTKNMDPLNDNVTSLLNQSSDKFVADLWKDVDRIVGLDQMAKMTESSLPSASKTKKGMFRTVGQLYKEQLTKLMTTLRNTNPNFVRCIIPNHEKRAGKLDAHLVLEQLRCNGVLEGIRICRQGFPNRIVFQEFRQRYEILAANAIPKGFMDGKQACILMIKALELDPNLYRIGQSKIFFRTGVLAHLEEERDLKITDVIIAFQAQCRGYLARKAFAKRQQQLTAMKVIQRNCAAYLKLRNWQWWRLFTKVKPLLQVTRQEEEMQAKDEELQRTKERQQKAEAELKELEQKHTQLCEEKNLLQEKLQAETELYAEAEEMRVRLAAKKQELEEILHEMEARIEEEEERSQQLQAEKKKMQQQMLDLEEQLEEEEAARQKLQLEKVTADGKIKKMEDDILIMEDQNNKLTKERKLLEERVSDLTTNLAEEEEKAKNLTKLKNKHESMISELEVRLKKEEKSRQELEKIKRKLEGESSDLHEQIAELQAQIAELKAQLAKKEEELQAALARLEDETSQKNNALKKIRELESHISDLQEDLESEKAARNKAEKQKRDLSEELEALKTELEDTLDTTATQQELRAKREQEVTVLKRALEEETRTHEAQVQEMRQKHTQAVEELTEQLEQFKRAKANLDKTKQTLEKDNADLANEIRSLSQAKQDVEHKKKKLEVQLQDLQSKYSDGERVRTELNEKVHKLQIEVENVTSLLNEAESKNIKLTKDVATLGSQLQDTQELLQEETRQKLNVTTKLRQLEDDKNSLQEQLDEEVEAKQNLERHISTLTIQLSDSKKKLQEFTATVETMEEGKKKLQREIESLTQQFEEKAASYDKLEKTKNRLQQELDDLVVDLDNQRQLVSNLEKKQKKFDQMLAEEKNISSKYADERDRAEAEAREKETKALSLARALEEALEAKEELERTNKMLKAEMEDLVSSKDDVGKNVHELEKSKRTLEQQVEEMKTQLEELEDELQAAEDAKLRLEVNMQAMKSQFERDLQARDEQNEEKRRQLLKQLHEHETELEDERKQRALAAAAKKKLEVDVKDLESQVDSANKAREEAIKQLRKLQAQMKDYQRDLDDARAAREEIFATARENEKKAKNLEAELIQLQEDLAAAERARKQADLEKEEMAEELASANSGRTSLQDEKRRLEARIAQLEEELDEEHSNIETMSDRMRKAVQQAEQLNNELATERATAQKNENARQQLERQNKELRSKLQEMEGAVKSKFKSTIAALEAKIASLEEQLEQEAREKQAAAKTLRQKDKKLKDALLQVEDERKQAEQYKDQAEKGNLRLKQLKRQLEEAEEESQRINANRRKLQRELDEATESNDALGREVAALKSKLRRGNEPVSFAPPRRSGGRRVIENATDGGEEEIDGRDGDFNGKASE

## CC(=O)c1ccc(N2CCC3(O)C(=O)c4ccncc4N=C23)cc1 (centres unmarked) [Compound 240, 1-(4-Acetylphenyl)-3a-hydroxy-1H,2H,3H,3aH,4H-pyrrolo[2,3-b]1,7-naphthyridin-4-one]
[1]
  % inhibition at 5 μM (or 10 μM if racemate) Smooth: 18%
  % inhibition at 50 μM (or 100 μM if racemate) Smooth: 23%
  Inhibition (%) smooth: 24%
  % inhibition. complete Smooth: 24%
[2]
  % inhibition at 5 μM (or 10 μM if racemate) Skeletal: 49%
  % inhibition at 50 μM (or 100 μM if racemate) Skeletal: 83%
  IC50: 4.3 µM
  % inhibition. complete Skeletal: 91%
[3]
  IC50: 8.1 µM
  % inhibition. complete cardiac: 37%
  inhibition at 5 µM: 13%
  inhibition at 50 µM: 31%
[4]
  IC50: 0.39 µM
  inhibition at 5 µM: 24%
  inhibition at 50 µM: 26%
[5]
  IC50: 1.5 µM

## N#CCc1ccc(N2CC[C@@]3(O)C(=O)c4ccsc4N=C23)cc1 [Compound 215, (9S)-2-(4-{9-Hydroxy-8-oxo-4-thia-2,12-diazatricyclo[7.3.0.0^3,7]dodeca-1,3(7),5-trien-12-yl}phenyl)acetonitrile]
[1]
  % inhibition at 5 μM (or 10 μM if racemate) Smooth: 31%
  % inhibition at 50 μM (or 100 μM if racemate) Smooth: 45%
  Inhibition (%) smooth: 47%
  % inhibition. complete Smooth: 47%
[2]
  % inhibition at 5 μM (or 10 μM if racemate) Skeletal: 80%
  % inhibition at 50 μM (or 100 μM if racemate) Skeletal: 96%
  IC50: 1.1 µM
  % inhibition. complete Skeletal: 98%
[6]; concentration required for semi-maximal inhibition of ATPase
  IC50: 19 µM
[6]; maximum value of inhibition of ATPase activity
  % inhibition. complete NM2C: 77%
[6]; read-out: % inhibition at 5 μM (or 10 μM if racemate) NM2C, 5 μM (10 μM if racemate), ATPase activity
  inhibition at 5 µM: 16%
[6]; read-out: % inhibition at 50 μM (or 100 μM if racemate) NM2C, 50 μM (100 μM if racemate), ATPase activity
  inhibition at 50 µM: 56%
[3]
  IC50: 5.6 µM
  % inhibition. complete cardiac: 94%
  inhibition at 5 µM: 42%
  inhibition at 50 µM: 84%
[4]
  IC50: 12.1 µM
  % inhibition. complete Dicty: 78%
  inhibition at 5 µM: 23%
  inhibition at 50 µM: 63%
[5]
  IC50: 2.3 µM

## Cc1cc2c(s1)N=C1NCCC1(O)C2=O (centres unmarked) [Compound 231, 9-Hydroxy-5-methyl-4-thia-2,12-diazatricyclo[7.3.0.0^3,7]dodeca-1,3(7),5-trien-8-one]
[1]
  % inhibition at 5 μM (or 10 μM if racemate) Smooth: 7%
  % inhibition at 50 μM (or 100 μM if racemate) Smooth: 2%
  Inhibition (%) smooth: 5%
  % inhibition. complete Smooth: 5%
[2]
  % inhibition at 5 μM (or 10 μM if racemate) Skeletal: 5%
  % inhibition at 50 μM (or 100 μM if racemate) Skeletal: 7%
  IC50: 1.4 µM
  Inhibition (%) skeletal: 7%
  % inhibition. complete Skeletal: 7%
[3]
  IC50: 1 µM
  inhibition at 5 µM: 6%
  inhibition at 50 µM: 5%
[4]
  IC50: > 100 µM
  inhibition at 5 µM: 4%
  inhibition at 50 µM: 0%
[5]
  IC50: 1 µM

## CN(C)c1ccc(N2CC[C@@]3(O)C(=O)c4ccsc4N=C23)cc1 [Compound 249, (9S)-12-[4-(dimethylamino)phenyl]-9-hydroxy-4-thia-2,12-diazatricyclo[7.3.0.0^3,7]dodeca-1,3(7),5-trien-8-one]
[1]
  % inhibition at 5 μM (or 10 μM if racemate) Smooth: 19%
  % inhibition at 50 μM (or 100 μM if racemate) Smooth: 55%
  % inhibition. complete Smooth: 69%
[2]
  % inhibition at 5 μM (or 10 μM if racemate) Skeletal: 80%
  % inhibition at 50 μM (or 100 μM if racemate) Skeletal: 97%
  IC50: 1.2 µM
  Inhibition (%) skeletal: 100%
  % inhibition. complete Skeletal: 100%
[3]
  IC50: 35 µM
  % inhibition. complete cardiac: 90%
  inhibition at 5 µM: 11%
  inhibition at 50 µM: 52%
[4]
  IC50: 10 µM
  % inhibition. complete Dicty: 47%
  inhibition at 5 µM: 15%
  inhibition at 50 µM: 39%
[5]
  IC50: 13 µM

## O=C1c2ccncc2N=C2NCCC12O (centres unmarked) [Compound 255, 3a-Hydroxy-1H,2H,3H,3aH,4H-pyrrolo[2,3-b]1,7-naphthyridin-4-one]
[1]
  % inhibition at 5 μM (or 10 μM if racemate) Smooth: 3%
  % inhibition at 50 μM (or 100 μM if racemate) Smooth: 3%
  % inhibition. complete Smooth: 3%
[2]
  % inhibition at 5 μM (or 10 μM if racemate) Skeletal: 6%
  % inhibition at 50 μM (or 100 μM if racemate) Skeletal: 7%
  IC50: 1.7 µM
  Inhibition (%) skeletal: 7%
  % inhibition. complete Skeletal: 7%
[3]
  IC50: 1 µM
  inhibition at 5 µM: 7%
  inhibition at 50 µM: 7%
[4]
  IC50: 42 µM
  % inhibition. complete Dicty: 33%
  inhibition at 5 µM: 4%
  inhibition at 50 µM: 18%
[5]
  IC50: 1 µM
